pEC50, pIC50: −log10 of the molar value. Like-named read-outs stand apart in the source and are kept apart here. Numbered stars: 1 amine (or outer) side, 2 acyl side, 3 side chain; on linkers, the order of the positions; unused ones are H or OH. Bridge positions count the residues as written; N and C are the ends. Peptide text beside a SMILES is read from it. * marks the point of attachment. C20 diacid = O=C(O)CCCCCCCCCCCCCCCCCCC(=O)*; γGlu = O=C(O)[C@H](CCC(=O)[*:2])N[*:1]
Legend:
rCTR = target: T1, rCTR (Rattus norvegicus, UniProt P32214); assay: scintillation proximity binding assay, rCTR membranes; settings: for rCTR pIC50 / IC50: SPA binding assay, Tables S13 and S15; for IC50: read-out: rCTR pIC50 (converted); for pIC50: SPA, BHK cell membranes, 125I-Calcitonin 75 pM, 120 min 25 °C, read-out: rCTR IC50
T1 construct: expressed in transfected cells; host or cells: BHK tk-ts 13, transient (FuGENE 6)
T1 sequence (P32214 25-479 isoform P32214-2 limits assumed): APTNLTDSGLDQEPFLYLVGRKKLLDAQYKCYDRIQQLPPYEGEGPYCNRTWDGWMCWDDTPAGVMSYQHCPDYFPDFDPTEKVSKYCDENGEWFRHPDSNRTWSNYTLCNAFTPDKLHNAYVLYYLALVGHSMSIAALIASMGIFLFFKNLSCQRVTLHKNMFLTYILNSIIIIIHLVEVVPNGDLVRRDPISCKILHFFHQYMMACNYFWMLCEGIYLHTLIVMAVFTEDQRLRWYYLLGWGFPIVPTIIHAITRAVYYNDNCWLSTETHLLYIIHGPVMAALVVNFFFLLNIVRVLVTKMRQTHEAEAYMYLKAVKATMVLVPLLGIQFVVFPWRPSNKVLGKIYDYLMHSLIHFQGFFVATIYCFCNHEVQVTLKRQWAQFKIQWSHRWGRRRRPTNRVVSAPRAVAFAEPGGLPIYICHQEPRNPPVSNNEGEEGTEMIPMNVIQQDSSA
Protocol: (§1) The apparent binding affinities were determined using a scintillation proximity assay with beads from PerkinElmer and cell membranes containing the AMY3R or CTRs. […] Membranes were harvested and membranes were prepared and kept at −80 °C until use. The assay was performed in a 384-well Optiplate (PerkinElmer). Membranes were mixed with scintillation proximity assay beads in a 1:1 ratio. […] Samples were analyzed on a TopCounter (Packard). The IC50 values were calculated using GraphPad Prism. See Supporting Information S7: SAR Screening Assay Methods (Binding Assays (Human and Rat)) for more information.
(§2) Binding Assays (Human and Rat). Brief descriptions of the methods used to determine binding affinities for SAR analysis are described below. Curves and IC50 values were plotted and calculated in GraphPad Prism using nonlinear regression (one site binding competition analysis), with pIC50 values […]
(§3) values were used to calculate the binding affinity ratios in order to express the selectivity of compounds for the AMY3R versus the CTR.
(§4) CTR Binding Assay. The binding assay was performed using scintillation proximity assay (SPA) beads (RPNQ0001) from PerkinElmer and cell membranes containing either the hCTR or rCTR. BHK […]
(§5) Membranes were prepared in the following way: the cells were rinsed with PBS and incubated with Versene for approximately 5 min before harvesting. The cells were flushed with PBS and the cell-suspension was centrifuged for 5 min at 1000 rpm. Cells were homogenized (Ultra Turrax) in a buffer […]
(§6) containing 20 mM Na-HEPES and 0.1 mM EDTA (pH 7.4, buffer 2). The resulting pellet was re-suspended in buffer 2 and protein concentration was measured (BCA protein assay, Pierce). The homogenate was kept cold during the whole procedure. The membranes were stored at –80 °C until […]
(§7) The binding assay was performed in a 384-well Optiplate (PerkinElmer) in a total volume of 40 μL.
(§8) Membranes were mixed with SPA beads in a 1:1 ratio. […]
(§9) mg/well. Test compounds were dissolved in DMSO and further diluted in assay buffer (50 mM HEPES, pH 7.4, 1 mM CaCl2, 5 mM MgCl2, 0.1% ovalbumin, and 0.02% Tween-20).
(§10) Calcitonin (NEX422 PerkinElmer) was dissolved in assay buffer and added to the Optiplate at a final […]
(§11) prior to centrifugation (1500 rpm, 10 min). Samples were analyzed on TopCounter (Packard).

rats = assay: Acute food intake in rats; format: in vivo, rat; settings: single sc injection of 30 nmol/kg, relative to vehicle, mean ± SEM, n = 5–7 per group
hCTR [1] = target: T2, hCTR (Homo sapiens, UniProt P30988); assay: scintillation proximity binding assay, hCTR membranes; parameters: expressed in transfected cells; host or cells: BHK tk-ts 13, transient (FuGENE 6); membranes for the SPA, whole cells for the species-specific assays; settings: for hCTR pIC50 / IC50: SPA binding assay, Tables S13 and S15; for IC50: read-out: hCTR pIC50 (converted); for pIC50: SPA, BHK cell membranes, 125I-Calcitonin 75 pM, 120 min 25 °C, read-out: hCTR IC50
T2 sequence (P30988 25-474): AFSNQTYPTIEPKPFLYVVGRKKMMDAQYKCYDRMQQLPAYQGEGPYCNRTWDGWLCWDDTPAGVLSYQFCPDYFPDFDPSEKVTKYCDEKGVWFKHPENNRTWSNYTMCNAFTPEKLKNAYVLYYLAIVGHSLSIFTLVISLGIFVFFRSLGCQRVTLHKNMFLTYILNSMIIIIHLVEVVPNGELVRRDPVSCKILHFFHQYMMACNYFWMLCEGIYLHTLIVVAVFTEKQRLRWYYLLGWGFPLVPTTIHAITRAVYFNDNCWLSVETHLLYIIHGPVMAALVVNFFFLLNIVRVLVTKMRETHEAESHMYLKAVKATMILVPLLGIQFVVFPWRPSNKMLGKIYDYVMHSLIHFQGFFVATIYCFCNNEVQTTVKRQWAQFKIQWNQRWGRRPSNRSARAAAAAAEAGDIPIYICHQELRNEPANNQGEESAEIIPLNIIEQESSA
Protocol: as §1, §2, §3, §4, §5, §6, §7, §8, §9, §10, §11

hCTR [2] = target: T2, hCTR; assay: cAMP-responsive element luciferase reporter assay, human CTR; format: cell-based; settings: luciferase (human receptor assay); for EC50: read-out: hCTR pEC50 (converted); for pEC50: BHK cells stably expressing hCTR and CRE-luciferase, 3 h, 37 °C, 10% FBS, read-out: hCTR EC50
rat CTR = target: T3, rat CTR (Rattus norvegicus, UniProt P32214); assay: cAMP FlashPlate assay, rat CTR; format: cell-based; settings: cAMP (rat receptor assay); for EC50: Tables S12 and S14, read-out: rCTR pEC50 (converted); for pEC50: transiently transfected BHK tk-ts 13 cells, FlashPlate, 30 min room temperature, 2% HSA, read-out: rCTR EC50
T3 construct: expressed in transfected cells; host or cells: BHK tk-ts 13, transient (FuGENE 6)
T3 sequence (P32214 25-479 isoform P32214-2 limits assumed): T1 sequence (P32214 25-479 isoform P32214-2 limits assumed)

SMILES	rCTR pIC50 (rCTR)	Acute food intake reduction 24–48 h (rats) [%]	hCTR pIC50 (hCTR [1])	hCTR pEC50 (hCTR [2]; Tables S12 and S14)	IC50 (rCTR) [µM]	pIC50 (rCTR)	IC50 (hCTR [1]) [µM]	pIC50 (hCTR [1])	EC50 (hCTR [2]; Tables S12 and S14) [µM]	pEC50 (hCTR [2])	EC50 (rat CTR) [µM]	pEC50 (rat CTR)	Acute food intake reduction 0–24 h (rats) [%]
CC[C@H](C)[C@H](NC(=O)[C@H](C)NC(=O)CNC(=O)[C@H](Cc1ccccc1)NC(=O)[C@H](CC(N)=O)NC(=O)[C@@H]1CCCN1C(=O)[C@H](CO)NC(=O)[C@H](CO)NC(=O)[C@H](Cc1c[nH]cn1)NC(=O)[C@H](CCCNC(=N)N)NC(=O)[C@H](CC(C)C)NC(=O)[C@H](Cc1ccccc1)NC(=O)[C@H](CC(N)=O)NC(=O)[C@H](C)NC(=O)[C@H](CC(C)C)NC(=O)[C@H](CCCNC(=N)N)NC(=O)[C@H](CCC(N)=O)NC(=O)[C@@H](NC(=O)[C@H](C)NC(=O)[C@@H]1CSSC[C@H](NC(=O)[C@H](CCCNC(=N)N)NC(=O)CNC(=O)CC[C@H](NC(=O)CCCCCCCCCCCCCCCCCCC(=O)O)C(=O)O)C(=O)N[C@@H](CC(N)=O)C(=O)N[C@@H]([C@@H](C)O)C(=O)N[C@@H](C)C(=O)N[C@@H]([C@@H](C)O)C(=O)N1)[C@@H](C)O)C(=O)N1CCC[C@H]1C(=O)N[C@@H](CO)C(=O)N[C@@H](CO)C(=O)N[C@H](C(=O)N[C@@H](CC(N)=O)C(=O)N[C@H](C(=O)NCC(=O)N[C@@H](CO)C(=O)N[C@@H](Cc1c[nH]cn1)C(=O)N[C@H](C(=O)N[C@@H](Cc1ccc(O)cc1)C(N)=O)[C@@H](C)O)C(C)C)[C@@H](C)O [Peptide 19] ({C20 diacid-γGlu}-GRCNTATCATQRLANFLRHSSPNFGAIPSSTNVGSHTY-NH2; disulfide 3-8)	7.77	6 ± 7	7.81	8.88	–	–	–	–	–	–	–	–	–
CC[C@H](C)[C@H](NC(=O)[C@H](C)NC(=O)CNC(=O)[C@H](Cc1ccccc1)NC(=O)[C@H](CC(N)=O)NC(=O)[C@@H]1CCCN1C(=O)[C@H](CO)NC(=O)[C@H](CO)NC(=O)[C@H](Cc1c[nH]cn1)NC(=O)[C@H](CCCNC(=N)N)NC(=O)[C@H](CC(C)C)NC(=O)[C@H](Cc1ccccc1)NC(=O)[C@H](CC(N)=O)NC(=O)[C@H](C)NC(=O)[C@H](CC(C)C)NC(=O)[C@H](CCCNC(=N)N)NC(=O)[C@H](CCC(N)=O)NC(=O)[C@@H](NC(=O)[C@H](C)NC(=O)[C@@H]1CSSC[C@H](NC(=O)[C@H](CCCCN)NC(=O)CC[C@H](NC(=O)CCCCCCCCCCCCCCCCCCC(=O)O)C(=O)O)C(=O)N[C@@H](CC(N)=O)C(=O)N[C@@H]([C@@H](C)O)C(=O)N[C@@H](C)C(=O)N[C@@H]([C@@H](C)O)C(=O)N1)[C@@H](C)O)C(=O)N1CCC[C@H]1C(=O)N[C@@H](CO)C(=O)N[C@@H](CO)C(=O)N[C@H](C(=O)N1CCC[C@H]1C(=O)N[C@H](C(=O)NCC(=O)N[C@@H](CO)C(=O)N[C@@H](CCC(=O)O)C(=O)N[C@H](C(=O)N[C@@H](Cc1ccc(O)cc1)C(N)=O)[C@@H](C)O)C(C)C)[C@@H](C)O [Peptide 11] ({C20 diacid-γGlu}-KCNTATCATQRLANFLRHSSPNFGAIPSSTPVGSETY-NH2; disulfide 2-7)	–	–	–	–	0.0513	7.29	0.012	7.92	0.002	8.70	0.0162	7.79	–
CC[C@H](C)[C@H](NC(=O)[C@H](C)NC(=O)CNC(=O)[C@H](Cc1ccccc1)NC(=O)[C@H](CC(N)=O)NC(=O)[C@@H]1CCCN1C(=O)[C@H](CO)NC(=O)[C@H](CO)NC(=O)[C@H](Cc1c[nH]cn1)NC(=O)[C@H](CCCNC(=N)N)NC(=O)[C@H](CC(C)C)NC(=O)[C@H](Cc1ccccc1)NC(=O)[C@H](CC(N)=O)NC(=O)[C@H](C)NC(=O)[C@H](CC(C)C)NC(=O)[C@H](CCCNC(=N)N)NC(=O)[C@H](CCC(N)=O)NC(=O)[C@@H](NC(=O)[C@H](C)NC(=O)[C@@H]1CSSC[C@H](NC(=O)[C@H](CCCCN)NC(=O)CC[C@H](NC(=O)CCCCCCCCCCCCCCCCCCC(=O)O)C(=O)O)C(=O)N[C@@H](CC(N)=O)C(=O)N[C@@H]([C@@H](C)O)C(=O)N[C@@H](C)C(=O)N[C@@H]([C@@H](C)O)C(=O)N1)[C@@H](C)O)C(=O)N1CCC[C@H]1C(=O)N[C@@H](CO)C(=O)N[C@@H](CO)C(=O)N[C@H](C(=O)N[C@@H](CC(N)=O)C(=O)N[C@H](C(=O)NCC(=O)N[C@@H](Cc1c[nH]cn1)C(=O)N[C@@H](CC(N)=O)C(=O)N[C@H](C(=O)N[C@@H](Cc1ccc(O)cc1)C(N)=O)[C@@H](C)O)C(C)C)[C@@H](C)O [Peptide 17]	–	–	–	–	0.0501	7.30	0.0141	7.85	0.00251	8.60	0.017	7.77	–
CC[C@H](C)[C@H](NC(=O)[C@H](C)NC(=O)CNC(=O)[C@H](Cc1ccccc1)NC(=O)[C@H](CC(N)=O)NC(=O)[C@@H]1CCCN1C(=O)[C@H](CO)NC(=O)[C@H](CO)NC(=O)[C@H](Cc1c[nH]cn1)NC(=O)[C@H](CCCNC(=N)N)NC(=O)[C@H](CC(C)C)NC(=O)[C@H](Cc1ccccc1)NC(=O)[C@H](CC(N)=O)NC(=O)[C@H](C)NC(=O)[C@H](CC(C)C)NC(=O)[C@H](CCCNC(=N)N)NC(=O)[C@H](CCC(N)=O)NC(=O)[C@@H](NC(=O)[C@H](C)NC(=O)[C@@H]1CSSC[C@H](NC(=O)[C@H](CCCCN)NC(=O)COCCOCCNC(=O)COCCOCCNC(=O)CC[C@H](NC(=O)CCCCCCCCCCCCCCCCCCC(=O)O)C(=O)O)C(=O)N[C@@H](CC(N)=O)C(=O)N[C@@H]([C@@H](C)O)C(=O)N[C@@H](C)C(=O)N[C@@H]([C@@H](C)O)C(=O)N1)[C@@H](C)O)C(=O)N1CCC[C@H]1C(=O)N[C@@H](CO)C(=O)N[C@@H](CO)C(=O)N[C@H](C(=O)N[C@@H](CC(N)=O)C(=O)N[C@H](C(=O)NCC(=O)N[C@@H](CO)C(=O)N[C@@H](CC(N)=O)C(=O)N[C@H](C(=O)N[C@@H](Cc1ccc(O)cc1)C(N)=O)[C@@H](C)O)C(C)C)[C@@H](C)O [Peptide 10]	6.46	1 ± 5	6.99	–	–	–	–	–	–	–	0.141	6.85	22 ± 5

Reference: article PMC11284788, “NN1213 – A Potent, Long-Acting, and Selective Analog of Human Amylin” (Journal of Medicinal Chemistry, 2024)
